How the values were obtained:
[1] = test system: P-selectin ligand on Ramos cells; assay: Cell surface P-selectin ligand by FACS, P-selectin fusion protein, Ramos; assay type: cell-based, human
Description: 100 μM of each inhibitor was used under standard culture conditions for approximately 1-2 weeks with regular changes of culture medium including fresh inhibitor. After the incubation period, the cells were analyzed by FACS using four different detection reagents: biotinylated-Lens culimaris agglutinin-A (LCA), anti-Lewis' antibody (anti-SSEA1), an anti-Lewis^y antibody (cBR96), and a Recombinant Human P-Selectin/CD62P/Fc Fusion protein. The procedure involved washing of the cells with FACS buffer (PBS+10% bovine serum albumin+0.02% sodium azide) 3 times followed by incubation with the primary detection reagent for 1 hr at 4° C., followed by 3 washes with FACS buffer and then incubation with the secondary detection reagent for 1 hr at 4° C. The cells were finally washed with FACS buffer 3 times and resuspended in FACS buffer and examined using a BD FACScan instrument. […] The P-selectin fusion protein detects P-selectin ligand present on the surface of cells, an interaction which involves the sialyl Lewis' epitope present of the P-selectin ligand.

PC-3 = assay: Xenograft of pre-treated PC-3 cells (Example 7, Study 2); assay type: in vivo, female nude mice; details: 20 mM in drinking water
Description: To further evaluate the activity of these fucose analogs, further studies were performed in vivo using tumor cells that had been pre-treated by culturing in the presence of a fucose analog, or using untreated tumor cells. Tumor cells were implanted into 10 mice per group as follows. For the LS174T, PC-3, and Caki-1 cell lines, 5×10^5 cells in 25% Matrigel were implanted subcutaneously into female nude mice. For HL-60 and Ramos cell lines, 5×10^6 cells were implanted subcutaneously into female SCID mice. For mice implanted with untreated tumor cells, mice were provided regular drinking water. For mice implanted with tumor cells pre-treated with 2-fluorofucose (SGD-2083), the mice were provided drinking water supplemented with 20 mM 2-fluorofucose (SGD-2083). For mice implanted with tumor cells pre-treated with alkylnyl fucose (SGD-1887), the mice were provided with regular drinking water.
After 3 weeks of receiving 2-fluorofucose-containing drinking water, mice were returned to regular drinking water, except for mice with Caki-1 tumors. The latter mice were returned to regular drinking water for one week. After the week of receiving regular water, mice were randomized to two groups of 5 each to receive drinking water supplemented with 20 mM 2-fluorofucose or regular drinking water. Mice were sacrificed when tumors reached about 1000 mm^3.

[2] = test system: A20 murine lymphoma cells; assay: Tumor vaccine model, killed A20 immunization and live A20 challenge; assay type: in vivo, Female Balb/c mice; details: 50 mM in drinking water days -14 through +21
Description: Female Balb/c mice were immunized by subcutaneous implantation of 1 million A20 murine lymphoma cells (killed by irradiation) on day −21 and day −7. Another group of mice were not given any immunization. On day 0, all mice were inoculated iv with 1.5 or 5 million live A20 cells. On days −14 through +21, mice were provided with 50 mM 2-fluorofucose (SGD-2083) in their drinking water or given regular drinking water. The 8 treatment groups were as follows: • 1. No immunization, 1.5 million live A20 cells, regular drinking water • 2. No immunization, 5 million live A20 cells, regular drinking water • 3. No immunization, 1.5 million live A20 cells, 50 mM SGD-2083 in drinking water • 4. No immunization, 5 million live A20 cells, 50 mM SGD-2083 in drinking water • 5. Immunized, 1.5 million live A20 cells, regular drinking water • 6. Immunized, 5 million live A20 cells, regular drinking water • 7. Immunized, 1.5 million live A20 cells, 50 mM SGD-2083 in drinking water • 8. Immunized, 5 million live A20 cells, 50 mM SGD-2083 in drinking water Results

C[C@H](O)[C@@H](O)[C@@H](O)[C@H](F)C=O [SGD-2083, 2-fluoro-2-deoxy fucose]
signal for P-selectin ligand (increase upon treatment) [1]: not observed
tumor growth (PC-3): tumor growth inhibition in vivo was seen
survival after live A20 challenge ([2]; immunized): still alive at data collection
survival after live A20 challenge ([2]; no immunization, versus regular drinking water): survived a few days longer
